The results in this text go back to US7507729B2, “Substituted imidazo-[1,5-a][1,2,4]triazolo[1,5-d][1,4] benzodiazepine derivatives” (priority 2005, dated 2009).

Where a name gives a salt, the structure may show the parent alone. Read-outs that look alike come from different tables or passages of the source.

The target of experiment [1] is T1, GABA A receptor α5β3γ2 (hα5) (Homo sapiens, UniProt P18507+P31644).
T1 construct: expressed in transfected cells; host or cells: HEK293, transiently transfected; membranes
Nature of the experiment: [3H]flumazenil competition binding, membranes of HEK293 cells expressing human GABA A α5β3γ2. The method, then: (§1) The affinity of compounds at GABA A receptor subtypes was measured by competition for [^3H]flumazenil (85 Ci/mmol; Roche) binding to HEK293 cells expressing rat (stably transfected) or human (transiently transfected) receptors of composition α1β3γ2, α2β3γ2, α3β3γ2 and α5β3γ2.
(§2) Cell pellets were suspended in Krebs-tris buffer (4.8 mM KCl, 1.2 mM CaCl2, 1.2 mM MgCl2, 120 mM NaCl, 15 mM Tris; pH 7.5; binding assay buffer), homogenized by polytron for ca. 20 sec on ice and centrifuged for 60 min at 4° C. (50000 g; Sorvall, rotor: SM24=20000 rpm). The cell pellets were resuspended in Krebs-tris buffer and homogenized by polytron for ca. 15 sec on ice. Protein was measured (Bradford method, Bio-Rad) and aliquots of 1 mL were prepared and stored at −80° C.
(§3) Radioligand binding assays were carried out in a volume of 200 μL (96-well plates) which contained 100 μL of cell membranes, [^3H]flumazenil at a concentration of 1 nM for α1, α2, α3 subunits and 0.5 nM for α5 subunits and the test compound in the range of 10^−10-3×10^−6 M.
(§4) Nonspecific binding was defined by 10^−5 M diazepam and typically represented less than 5% of the total binding. Assays were incubated to equilibrium for 1 hour at 4° C. and harvested onto GF/C uni-filters (Packard) by filtration using a Packard harvester and washing with ice-cold wash buffer (50 mM Tris; pH 7.5). After drying, filter-retained radioactivity was detected by liquid scintillation counting. Ki values were calculated using Excel-Fit (Microsoft) and are the means of two determinations.

The target in experiment [2] is T2, GABA A receptor α1β3γ2 (hα1) (Homo sapiens, UniProt P14867+P18507).
T2 construct: expressed in transfected cells; host or cells: HEK293, transiently transfected; membranes
In words: [3H]flumazenil competition binding, membranes of HEK293 cells expressing human GABA A α1β3γ2. The method, then:
as §1, §2, §3, §4

[3] abbreviates: [3H]flumazenil 0.5 nM, 1 hour at 4° C., means of two determinations, read-out: Ki[nM] hα5.
Where [4] appears, read: [3H]flumazenil 1 nM, 1 hour at 4° C., means of two determinations, read-out: Ki[nM] hα1.

One may read the Ki as the dissociation constant of the complex between target and ligand, obtained from inhibition or displacement. On to `Cc1noc(Cc2nc3n(n2)Cc2c(Cl)ncn2-c2ccc(Br)cc2-3)n1` [Example 72, 3-Bromo-10-chloro-6-(3-methyl-[1,2,4]oxadiazol-5-ylmethyl)-9H-imidazo[1,5-a][1,2,4]triazolo[1,5-d][1,4]benzodiazepine], for which the Ki in experiment [1] (setting [3]) was found to be 0.7 nM; in experiment [2] it was 98.2 nM.
Consider `Cc1ncn2c1Cn1nc(Cc3ccncc3)nc1-c1cc(Br)ccc1-2` [Example 122, 3-Bromo-10-methyl-6-(pyridine-4-ylmethyl)-9H-imidazo[1,5-a][1,2,4]triazolo[1,5-d][1,4]benzodiazepine], for which the results for the Ki in experiment [1] and in experiment [2] (setting [4]) were 0.5 nM and 150 nM, respectively.
In the same order, the values of `Cc1cc(Cc2nc3n(n2)Cc2c(C)ncn2-c2ccc(Br)cc2-3)on1` [Example 123, 3-Bromo-10-methyl-6-(3-methyl-isoxazol-5-ylmethyl)-9H-imidazo[1,5-a][1,2,4]triazolo[1,5-d][1,4]benzodiazepine] are 0.6 nM and 188 nM.
In the same order, the values of `Cc1cc(Cc2nc3n(n2)Cc2c(C)ncn2-c2ccc(Cl)cc2-3)on1` [Example 183, 3-Chloro-10-methyl-6-(3-methyl-isoxazol-5-ylmethyl)-9H-imidazo[1,5-a][1,2,4]triazolo[1,5-d][1,4]benzodiazepine hydrochloride (1:1)] are 0.6 nM and 279 nM.
The corresponding values for `Cc1ccc(Cc2nc3n(n2)Cc2c(C)ncn2-c2ccc(Cl)cc2-3)cn1` [Example 185, 3-Chloro-10-methyl-6-(6-methyl-pyridin-3-ylmethyl)-9H-imidazo[1,5-a][1,2,4]triazolo[1,5-d][1,4]benzodiazepine] are 0.9 nM and 248 nM.
`Cc1ccc2c(c1)-c1nc(Cc3cc(C)no3)nn1Cc1c(C)ncn1-2` [Example 236, 3,10-Dimethyl-6-(3-methyl-isoxazol-5-ylmethyl)-9H-imidazo[1,5-a][1,2,4]triazolo[1,5-d][1,4]benzodiazepine]: the Ki is 0.8 nM in experiment [1] and 496 nM in experiment [2] (setting [4]).
On to `Cc1ncn2c1Cn1nc(Cc3ccccn3)nc1-c1ccccc1-2` [Example 261, 10-Methyl-6-(pyridine-2-ylmethyl)-9H-imidazo[1,5-a][1,2,4]triazolo[1,5-d][1,4]benzodiazepine], for which the Ki was determined as 0.7 nM in experiment [1] (setting [3]) and 26.6 nM in experiment [2].
On to `Cc1ncn2c1Cn1nc(Cc3cccnc3)nc1-c1ccccc1-2` [Example 265, 10-Methyl-6-(pyridine-3-ylmethyl)-9H-imidazo[1,5-a][1,2,4]triazolo[1,5-d][1,4]benzodiazepine], for which the values for the Ki in experiment [1] (setting [3]) and in experiment [2] were 0.62 nM and 39.3 nM, respectively.
For `Cc1ncn2c1Cn1nc(Cc3ccncc3)nc1-c1ccccc1-2` [Example 267, 10-Methyl-6-(pyridine-4-ylmethyl)-9H-imidazo[1,5-a][1,2,4]triazolo[1,5-d][1,4]benzodiazepine], the Ki in experiment [1] (setting [3]) was determined as 0.25 nM; in experiment [2] it was 20.4 nM.
In the same order, the values of `Cc1ncn2c1Cn1nc(Cn3ccnc3)nc1-c1ccccc1-2` [Example 275, 6-(Imidazol-1-ylmethyl)-10-methyl-9H-imidazo[1,5-a][1,2,4]triazolo[1,5-d][1,4]benzodiazepine hydrochloride (1:1)] are 0.6 nM and 33.6 nM.
In the same order, the values of `CN1CCN(Cc2nc3n(n2)Cc2c(Cl)ncn2-c2ccc(Br)cc2-3)C1=O` [Example 300, 3-Bromo-10-chloro-6-(3-methyl-2-oxo-imidazolidin-1-ylmethyl)-9H-imidazo[1,5-a][1,2,4]triazolo[1,5-d][1,4]benzodiazepine] are 0.7 nM and 62.1 nM.
Regarding `O=C1NCCN1Cc1nc2n(n1)Cc1c(Cl)ncn1-c1ccc(Br)cc1-2` [Example 301, 3-Bromo-10-chloro-6-(2-oxo-imidazolidin-1-ylmethyl)-9H-imidazo[1,5-a][1,2,4]triazolo[1,5-d][1,4]benzodiazepine], the Ki came out at 0.7 nM in experiment [1] (setting [3]) and 50.5 nM in experiment [2] (setting [4]).
Consider `O=C1CSC(=O)N1Cc1nc2n(n1)Cc1c(Cl)ncn1-c1ccc(Br)cc1-2` [Example 309, 3-Bromo-10-chloro-6-(2,4-dioxo-thiazolidin-3-ylmethyl)-9H-imidazo[1,5-a][1,2,4]triazolo[1,5-d][1,4]benzodiazepine], for which the Ki in experiment [1] (setting [3]) was found to be 0.5 nM; in experiment [2] it was 55.2 nM.
Take `O=C1CCC(=O)N1Cc1nc2n(n1)Cc1c(Cl)ncn1-c1ccc(Br)cc1-2` [Example 310, 3-Bromo-10-chloro-6-(2,5-dioxo-pyrrolidin-1-ylmethyl)-9H-imidazo[1,5-a][1,2,4]triazolo[1,5-d][1,4]benzodiazepine]: the figures for the inhibition constant (Ki) in experiment [1] (setting [3]) and in experiment [2] (setting [4]) were 0.7 nM and 69.7 nM, respectively.
On to `O=C1SCCN1Cc1nc2n(n1)Cc1c(Cl)ncn1-c1ccc(Br)cc1-2` [Example 312, 3-Bromo-10-chloro-6-(2-oxo-thiazolidin-3-ylmethyl)-9H-imidazo[1,5-a][1,2,4]triazolo[1,5-d][1,4]benzodiazepine], for which the Ki in experiment [1] (setting [3]) was 0.5 nM; in experiment [2] it was 60 nM.
The corresponding values for `C[C@H]1CN(Cc2nc3n(n2)Cc2c(Cl)ncn2-c2ccc(Br)cc2-3)C(=O)O1` [Example 314, 3-Bromo-10-chloro-6-((5S)-5-methyl-2-oxo-oxazolidin-3-ylmethyl)-9H-imidazo[1,5-a][1,2,4]triazolo[1,5-d][1,4]benzodiazepine] are 0.7 nM and 32.3 nM.
Consider `O=C1OCCN1Cc1nc2n(n1)Cc1c(Cl)ncn1-c1ccc(Cl)cc1-2` [Example 316, 3,10-Dichloro-6-(2-oxo-oxazolidin-3-ylmethyl)-9H-imidazo[1,5-a][1,2,4]triazolo[1,5-d][1,4]benzodiazepine], for which the Ki came out at 0.9 nM in experiment [1] and 116 nM in experiment [2] (setting [4]).
Consider `Cc1ncn2c1Cn1nc(Cn3ncccc3=O)nc1-c1cc(Br)ccc1-2` [Example 330, 3-Bromo-10-methyl-6-(6-oxo-6H-pyridazin-1-ylmethyl)-9H-imidazo[1,5-a][1,2,4]triazolo[1,5-d][1,4]benzodiazepine hydrochloride (1:1)], for which the Ki is 0.7 nM in experiment [1] and 134 nM in experiment [2] (setting [4]).
The corresponding values for `Cc1noc(Cc2nc3n(n2)Cc2c(C)ncn2-c2ccc(Br)cc2-3)n1` [Example 349, 3-Bromo-10-methyl-6-(3-methyl-[1,2,4]oxadiazol-5-ylmethyl)-9H-imidazo[1,5-a][1,2,4]triazolo[1,5-d][1,4]benzodiazepine] are 0.9 nM and 469 nM.
`Cc1ncn2c1Cn1nc(Cn3ccccc3=O)nc1-c1ccccc1-2` [Example 378, 10-Methyl-6-(2-oxo-2H-pyridin-1-ylmethyl)-9H-imidazo[1,5-a][1,2,4]triazolo[1,5-d][1,4]benzodiazepine]: the values for the Ki in experiment [1] (setting [3]) and in experiment [2] were 0.6 nM and 42.1 nM, respectively.
Take “Ethyl 3-bromo-6-methoxymethyl-9H-imidazo[1,5-a][1,2,4]triazolo[1,5-d][1,4]benzodiazepine-10-carboxylate [Example 38]”: the Ki in experiment [1] (setting [3]) was 0.4 nM; in experiment [2] (setting [4]) it was 6.9 nM.
